Read-outs that look alike come from different tables or passages of the source.
What was measured:
[1] = target: T1, FXR ligand binding domain (LBD) (Homo sapiens, UniProt Q96RI1); assay: AlphaScreen assay: FXR LBD recruitment of coregulator peptide motifs (SRC2-3, SRC1-2); assay type: biochemical
T1 construct: made in house
T1 sequence (Q96RI1 262-486 limits assumed): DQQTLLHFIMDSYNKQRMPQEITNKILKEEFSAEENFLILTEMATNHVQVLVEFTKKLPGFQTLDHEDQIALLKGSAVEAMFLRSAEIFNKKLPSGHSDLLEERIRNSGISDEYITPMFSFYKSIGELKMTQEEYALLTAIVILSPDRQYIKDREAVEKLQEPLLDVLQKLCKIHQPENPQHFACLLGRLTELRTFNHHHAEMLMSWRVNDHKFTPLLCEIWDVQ

full-length FXR = target: T2, full-length FXR (Homo sapiens, UniProt Q96RI1); assay: Cell-based FXR transactivation, EcRE luciferase reporter in COS-7 cells; details: for Cell-based FXR transactivation Fold changes by 5 μM compound: positive: induction, minus: repression; for EC50 / fold induction at 5 µM: EcRE luciferase reporter; for Cell-based FXR transactivation Fold changes by 5 μM compound / fold induction at 5 µM: 5 μM compound
T2 construct: The cells were co-transfected with plasmids encoding full-length FXR and the cognate luciferase reporter EcRE-Luc; expressed in transfected cells; host or cells: COS-7
T2 sequence (Q96RI1 1-486): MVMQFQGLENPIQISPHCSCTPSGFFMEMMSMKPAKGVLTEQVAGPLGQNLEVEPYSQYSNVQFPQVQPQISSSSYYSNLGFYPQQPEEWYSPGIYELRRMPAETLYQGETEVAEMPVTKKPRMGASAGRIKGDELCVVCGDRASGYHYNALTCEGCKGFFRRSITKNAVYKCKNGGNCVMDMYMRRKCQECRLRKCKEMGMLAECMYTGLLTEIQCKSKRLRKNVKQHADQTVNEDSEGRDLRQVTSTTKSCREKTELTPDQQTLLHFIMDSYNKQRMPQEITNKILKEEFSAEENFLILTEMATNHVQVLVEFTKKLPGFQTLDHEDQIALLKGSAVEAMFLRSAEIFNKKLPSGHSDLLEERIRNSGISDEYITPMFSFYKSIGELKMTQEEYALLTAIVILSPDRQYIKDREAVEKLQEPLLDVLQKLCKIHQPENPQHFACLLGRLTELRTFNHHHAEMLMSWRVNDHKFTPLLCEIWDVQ
Summary of the method: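 COS-7 cells were transiently cotransfected with full-length FXR, EcRE-Luc reporter and a renilla control. Ligands were added 5 h after transfection, and cells were harvested 24 h later. Firefly luciferase was normalized to renilla in a dual-luciferase read-out.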

[2] = tested on: human colorectal adenocarcinoma HCT15 cells; assay: MTT cell viability assay, HCT15; assay type: cell-based; details: 48 h, read-out: Cell viability as a percentage of the cells treated with DMSO, HCT15; for viability at 20 µM: HCT-15, 20 uM; for viability at 40 µM: HCT-15, 40 uM
Summary of the method: (§1)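 Percent viability versus DMSO-treated controls was determined colorimetrically with MTT. Treatment used 20 uM or 40 uM compound on cells grown in serum-supplemented (10% FBS) DMEM.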

[3] = tested on: RA-resistant human colon cancer HCT116 cells; assay: MTT cell viability assay, HCT116; assay type: cell-based; details: 48 h, read-out: Cell viability as a percentage of the cells treated with DMSO, HCT116; for viability at 20 µM: HCT-116, 20 uM; for viability at 40 µM: HCT-116, 40 uM
Summary of the method: as §1

[4] = tested on: human hepatoma HepG2 cells; assay: MTT cell viability assay, HepG2; assay type: cell-based; details: 48 h, read-out: Cell viability as a percentage of the cells treated with DMSO, HepG2
Summary of the method: as §1

[5] = tested on: human cervical carcinoma Hela cells; assay: MTT cell viability assay, Hela; assay type: cell-based; details: 48 h, read-out: Cell viability as a percentage of the cells treated with DMSO, Hela
Summary of the method: as §1

[6] = tested on: human breast cancer MCF7 cells; assay: MTT cell viability assay, MCF-7; assay type: cell-based; details: 48 h, read-out: Cell viability as a percentage of the cells treated with DMSO, MCF-7
Summary of the method: as §1

[7] = SRC1-2 peptide, Table 2, read-out: EC50 (μM) of FXR binding by AlphaScreen assay recruit SRC1-2
[8] = SRC2-3 peptide, Table 2, read-out: EC50 (μM) of FXR binding by AlphaScreen assay recruit SRC2-3
[9] = SRC1-2 peptide, Table 1, read-out: EC50 (μM) of FXR binding by AlphaScreen assay recruit SRC1-2
[10] = SRC2-3 peptide, Table 1, read-out: EC50 (μM) of FXR binding by AlphaScreen assay recruit SRC2-3

EC50 [1, 7]	EC50 [1, 8]	Cell-based FXR transactivation Fold changes by 5 μM compound (full-length FXR; Table 2)	EC50 (full-length FXR; Table 2)	EC50 [1, 9]	EC50 [1, 10]	fold induction at 5 µM (full-length FXR; Table 1)	EC50 (full-length FXR; Table 1)	SMILES	viability at 20 µM [2]	viability at 40 µM [2]	viability at 20 µM [3]	viability at 40 µM [3]	viability at 20 µM [4]	viability at 40 µM [4]	viability at 20 µM [5]	viability at 40 µM [5]	viability at 20 µM [6]	viability at 40 µM [6]
< 1 µM	< 1 µM	3	< 1000 nM	–	–	–	–	COc1cc(C(=O)OC2CCCCCCC2)ccc1O [XD-18, cyclooctyl 4-hydroxy-3-methoxybenzoate]	91 ± 4%	40 ± 4%	92 ± 1%	30 ± 2%	96 ± 3%	55 ± 1%	100 ± 3%	71 ± 3%	98 ± 10%	32%
–	–	–	–	< 1 µM	< 1 µM	8	< 1000 nM	O=C(OC1CCCCCCC1)c1ccc(O)cc1 [XD-10, cyclooctyl 4-hydroxybenzoate]	60 ± 4%	41 ± 4%	92 ± 6%	30 ± 4%	90 ± 3%	35 ± 1%	90 ± 4%	40 ± 3%	93 ± 7%	28%
> 10 µM	> 10 µM	1.5	–	–	–	–	–	Nc1ccc(C(=O)OC2CCCCCC2)cc1 [XD-12, cycloheptyl 4-aminobenzoate]	65 ± 4%	54 ± 4%	77 ± 3%	65 ± 3%	100 ± 2%	97 ± 3%	100 ± 2%	90 ± 5%	100 ± 4%	82%
< 1 µM	< 1 µM	4	< 1000 nM	–	–	–	–	CC1(C)C2CCC1(C)C(OC(=O)c1ccc(F)c(Br)c1)C2 (centres unmarked) [XD-13, 1,7,7-trimethyl-bicyclo[2.2.1]-heptan-2-yl 3-bromo-4-fluoro-benzoate]	100 ± 2%	71 ± 3%	100 ± 2%	70 ± 5%	92 ± 3%	86 ± 1%	100 ± 3%	96 ± 1%	100 ± 7%	100 ± 1%
–	–	–	–	< 1 µM	< 1 µM	> 10	< 1000 nM	COc1cc(C(=O)OC2C/C(C)=C/CC/C(C)=C/[C@@H](O)[C@H]2C(C)C)ccc1O (some centres unmarked) [Tschimganidine]	85 ± 9%	60 ± 10%	95 ± 4%	40 ± 7%	94%	48 ± 4%	96%	30 ± 5%	100 ± 4%	85%
1 to 10 µM	1 to 10 µM	4	1000 to 10000 nM	–	–	–	–	CC1(C)C2CCC1(C)C(OC(=O)c1ccc(=O)oc1)C2 (centres unmarked) [XD-9, 1,7,7-trimethyl-bicyclo[2.2.1]-heptan-2-yl 6-oxo-6H-pyran-3-carboxylate]	49 ± 2%	42 ± 3%	58 ± 2%	25 ± 2%	90 ± 3%	64 ± 3%	80 ± 3%	59 ± 5%	72 ± 6%	31%
–	1 to 10 µM	2	1000 to 10000 nM	–	–	–	–	Cc1cc(C(=O)OC2CCC3CCCCC3C2)ccc1[N+](=O)[O-] (centres unmarked) [XD-35, decahydro-naphthalen-2-yl 3-methyl-4-nitro-benzoate]	100 ± 2%	93 ± 2%	95 ± 2%	93 ± 2%	100 ± 2%	93 ± 2%	94 ± 2%	93 ± 2%	100 ± 2%	100 ± 2%
1 to 10 µM	1 to 10 µM	5	1000 to 10000 nM	–	–	–	–	CC1(C)C2CCC1(C)C(OC(=O)c1ccc(F)cc1)C2 (centres unmarked) [XD-0, 1,7,7-trimethyl-bicyclo[2.2.1]-heptan-2-yl 4-fluorobenzoate]	81 ± 4%	56 ± 2%	95 ± 4%	62 ± 6%	81 ± 2%	76 ± 7%	90%	71 ± 3%	100 ± 2%	85%
–	–	–	–	< 1 µM	< 1 µM	> 10	< 1000 nM	C/C1=C\CCC(C)(O)/C=C/C(C(C)C)C(OC(=O)c2ccc(O)cc2)C1 (centres unmarked) [Feroline]	100 ± 2%	76 ± 6%	100 ± 5%	80 ± 2%	84%	65 ± 3%	83%	67 ± 3%	92 ± 13%	86 ± 12%
1 to 10 µM	1 to 10 µM	4	1000 to 10000 nM	–	–	–	–	CC1(C)C2CCC1(C)C(OC(=O)c1ccc(=O)[nH]c1)C2 (centres unmarked) [XD-8, 1,7,7-trimethyl-bicyclo[2.2.1]-heptan-2-yl 6-oxo-1,6-dihydropyridine-3-carboxylate]	78 ± 4%	60 ± 4%	92 ± 7%	60 ± 3%	90%	64 ± 3%	97%	71 ± 3%	94 ± 10%	75%
–	–	–	–	< 1 µM	< 1 µM	> 10	< 1000 nM	CC1(C)[C@@H]2CC[C@@]1(C)[C@@H](OC(=O)c1ccc(O)cc1)C2 [Tschimgine]	97 ± 6%	31 ± 2%	93 ± 4%	25 ± 5%	97%	30 ± 3%	94%	31 ± 4%	93%	32%

— patent US20180116993A1, “MODULATORS OF FARNESOID X RECEPTOR AND METHODS FOR THE USE THEREOF” (XIAMEN UNIVERSITY, priority 2015, published 2018)
